According to ChEMBL document CHEMBL1201862, “PubChem BioAssay data set” (2004):
Activity calls are given as the source filed them.

Assays:
[1] = A Cell Based Secondary Assay To Explore Cytotoxicity of Compounds that Sensitize Mycobacterium Tuberculosis to Beta-Lactam Antibiotics.; assay type: functional
[2] = Luminescence-based cell-based high throughput dose response assay to identify activators of the DAF-12 from the parasite S. stercoralis (ssDAF-12).; assay type: functional
[3] = biological target: T1, Oxysterols receptor LXR-beta (Homo sapiens, UniProt P55055); assay: LXR agonists, Gal4 luciferase reporter, dose response, counter-screen for ssDAF-12 agonist project, cell-based, luminescence, HEK293, S. stercoralis campaign (AID 720737); assay type: functional; details: read-out: IC50 (the source's name)
T1 sequence (P55055 whole entry): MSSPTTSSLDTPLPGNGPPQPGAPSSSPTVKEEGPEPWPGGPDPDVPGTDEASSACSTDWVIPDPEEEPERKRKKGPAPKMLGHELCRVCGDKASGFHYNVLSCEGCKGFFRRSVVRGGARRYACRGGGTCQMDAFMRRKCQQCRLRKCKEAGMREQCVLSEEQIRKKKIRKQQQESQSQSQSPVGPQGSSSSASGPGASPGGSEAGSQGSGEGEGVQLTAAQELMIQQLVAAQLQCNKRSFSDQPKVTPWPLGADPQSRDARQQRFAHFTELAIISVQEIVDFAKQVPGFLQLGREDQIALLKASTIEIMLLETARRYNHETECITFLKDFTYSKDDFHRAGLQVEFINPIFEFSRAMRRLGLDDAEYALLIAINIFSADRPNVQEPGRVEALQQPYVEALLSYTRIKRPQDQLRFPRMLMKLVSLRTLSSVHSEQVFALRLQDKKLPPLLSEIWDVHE

[4] = biological target: T2, E3 ubiquitin-protein ligase XIAP (Homo sapiens, UniProt P98170); assay: Counter Screen using XIAP-Bir3 for Chemical Antagonists of Bir1/2 domains of IAP-family anti-apoptotic proteins. [Related pubchem assays (depositor defined):AID1018, AID1449, AID1514, AID1638, AID1749, AID1750, AID488957, AID488963]
T2 sequence (P98170 whole entry): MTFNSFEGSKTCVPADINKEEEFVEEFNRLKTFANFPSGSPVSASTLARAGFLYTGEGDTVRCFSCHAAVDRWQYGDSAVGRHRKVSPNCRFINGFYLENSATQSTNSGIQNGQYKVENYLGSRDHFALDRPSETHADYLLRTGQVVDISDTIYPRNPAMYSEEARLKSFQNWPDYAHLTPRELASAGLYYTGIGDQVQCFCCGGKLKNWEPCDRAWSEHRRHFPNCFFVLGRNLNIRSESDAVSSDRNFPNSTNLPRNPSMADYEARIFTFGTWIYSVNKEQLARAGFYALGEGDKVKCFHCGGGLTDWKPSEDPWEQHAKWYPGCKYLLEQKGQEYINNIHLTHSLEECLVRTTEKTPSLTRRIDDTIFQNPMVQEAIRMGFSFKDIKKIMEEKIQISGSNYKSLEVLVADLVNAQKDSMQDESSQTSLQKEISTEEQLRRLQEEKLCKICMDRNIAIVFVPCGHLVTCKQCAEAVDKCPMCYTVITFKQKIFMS

[5] = biological target: T2, E3 ubiquitin-protein ligase XIAP; assay: XIAP antagonists, biochemical, IAP family, fluorescence polarization (AID 1018); assay type: functional
HEK293 = assay: inhibitors of LMP1-driven NF-kB reporter, dose response, cell-based, HEK293, luciferase, cherry-pick (AID 588343); assay type: functional; details: Homo sapiens
[6] = THP-1 cell cytotoxicity, dose response, cytotoxicity control for Vif-APOBEC3G degradation inhibitor project, THP-1 cells (AID 1117359); assay type: functional; details: Human immunodeficiency virus 1, THP-1
[7] = biological target: T3, Replicative DNA helicase DnaB (Mycobacterium tuberculosis, UniProt P9WMR3); assay: DnaB intein splicing inhibitors, dose response, biochemical, cell-free fluorescence (AID 449749); assay type: functional
T3 sequence (P9WMR3 whole entry): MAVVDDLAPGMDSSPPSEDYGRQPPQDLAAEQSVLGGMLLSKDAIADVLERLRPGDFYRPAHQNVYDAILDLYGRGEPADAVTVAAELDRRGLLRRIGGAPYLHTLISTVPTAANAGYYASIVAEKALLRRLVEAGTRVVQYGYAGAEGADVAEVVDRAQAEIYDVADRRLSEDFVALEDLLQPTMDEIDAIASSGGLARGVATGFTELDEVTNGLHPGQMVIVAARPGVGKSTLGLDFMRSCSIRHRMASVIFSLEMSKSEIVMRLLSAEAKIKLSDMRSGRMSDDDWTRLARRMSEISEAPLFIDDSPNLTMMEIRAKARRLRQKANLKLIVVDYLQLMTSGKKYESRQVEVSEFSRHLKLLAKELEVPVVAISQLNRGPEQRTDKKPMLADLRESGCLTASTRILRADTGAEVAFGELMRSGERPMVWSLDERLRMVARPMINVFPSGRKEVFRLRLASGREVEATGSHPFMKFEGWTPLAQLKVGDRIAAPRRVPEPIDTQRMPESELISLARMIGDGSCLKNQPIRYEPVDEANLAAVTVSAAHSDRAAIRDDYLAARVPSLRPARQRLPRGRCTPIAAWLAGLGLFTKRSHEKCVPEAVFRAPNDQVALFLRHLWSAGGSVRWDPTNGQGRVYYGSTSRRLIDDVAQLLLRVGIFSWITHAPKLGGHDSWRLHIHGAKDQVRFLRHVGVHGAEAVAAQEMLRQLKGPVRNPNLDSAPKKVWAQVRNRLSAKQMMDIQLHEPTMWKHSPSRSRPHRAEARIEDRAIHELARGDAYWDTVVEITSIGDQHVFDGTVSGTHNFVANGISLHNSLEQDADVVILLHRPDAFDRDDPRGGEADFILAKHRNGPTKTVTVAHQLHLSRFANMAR

Protein RecA = biological target: T4, Protein RecA (Mycobacterium tuberculosis, UniProt P9WHJ3); assay: Fluorescence Cell-Free Homogeneous Dose Retest to Identify Inhibitors of RecA-Intein Splicing Activity. [Related pubchem assays (depositor defined):AID2097, AID2223, AID489010, AID492950]; assay type: functional
T4 sequence (P9WHJ3 whole entry): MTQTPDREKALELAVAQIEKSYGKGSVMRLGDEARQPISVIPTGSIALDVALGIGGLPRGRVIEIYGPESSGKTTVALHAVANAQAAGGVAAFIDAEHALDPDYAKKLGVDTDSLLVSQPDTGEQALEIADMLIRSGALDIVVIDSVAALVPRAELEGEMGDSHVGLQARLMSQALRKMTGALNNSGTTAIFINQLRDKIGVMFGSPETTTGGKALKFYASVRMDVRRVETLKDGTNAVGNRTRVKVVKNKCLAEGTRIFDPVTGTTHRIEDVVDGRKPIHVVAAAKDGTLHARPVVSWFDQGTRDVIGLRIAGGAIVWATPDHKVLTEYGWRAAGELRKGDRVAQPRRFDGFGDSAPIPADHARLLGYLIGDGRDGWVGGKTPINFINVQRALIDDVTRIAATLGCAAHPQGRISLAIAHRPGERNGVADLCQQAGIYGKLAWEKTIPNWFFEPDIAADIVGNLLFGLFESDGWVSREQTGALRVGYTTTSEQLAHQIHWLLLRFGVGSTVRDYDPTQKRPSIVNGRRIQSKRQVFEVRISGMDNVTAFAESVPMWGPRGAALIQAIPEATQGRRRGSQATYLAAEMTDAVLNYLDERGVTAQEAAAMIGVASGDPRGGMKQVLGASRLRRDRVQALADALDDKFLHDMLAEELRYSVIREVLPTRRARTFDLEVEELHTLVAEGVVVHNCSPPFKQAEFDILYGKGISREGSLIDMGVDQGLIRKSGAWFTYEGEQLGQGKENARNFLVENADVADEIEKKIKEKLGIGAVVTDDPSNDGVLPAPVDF

[8] = biological target: T5, Tyrosyl-DNA phosphodiesterase 2 (Homo sapiens, UniProt O95551); assay: human TDP2 enzyme inhibitors, dose response, biochemical, epi absorbance, IC50 (AID 743297)
T5 sequence (O95551 whole entry): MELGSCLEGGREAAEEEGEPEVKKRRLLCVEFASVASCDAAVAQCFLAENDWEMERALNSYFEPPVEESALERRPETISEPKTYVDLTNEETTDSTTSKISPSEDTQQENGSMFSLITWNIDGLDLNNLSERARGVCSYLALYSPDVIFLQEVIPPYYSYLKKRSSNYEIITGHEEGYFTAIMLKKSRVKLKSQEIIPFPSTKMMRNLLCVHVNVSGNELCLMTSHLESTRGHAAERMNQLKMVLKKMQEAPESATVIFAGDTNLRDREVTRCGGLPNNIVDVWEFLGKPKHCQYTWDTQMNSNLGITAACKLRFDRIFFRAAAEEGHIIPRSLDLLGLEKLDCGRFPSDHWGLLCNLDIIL

[9] = growth suppression of PTEN-null colon cells, dose response, cell-based, HCT116 PTEN knockout (AID 1047); assay type: functional;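 note: HCT116 colon tumor cells with PTEN knocked out; cells exposed to compound for 60 hours before readout; potency for loss of cell viability measured by luminescence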
[10] = growth suppression of beta-catenin-knockout colon cells, dose response, cell-based, HCT116, human colon tumor (AID 1045); assay type: functional;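 note: HCT116 colon tumor cells with beta catenin knocked out; cells exposed to compound for 60 hours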
[11] = biological target: Voltage-dependent T-type calcium channel subunit alpha-1H (Homo sapiens, UniProt O95180); assay type: functional;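 note: channel activity triggered by adding a high calcium stimulation buffer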
Sequence of Voltage-dependent T-type calcium channel subunit alpha-1H (O95180 whole entry): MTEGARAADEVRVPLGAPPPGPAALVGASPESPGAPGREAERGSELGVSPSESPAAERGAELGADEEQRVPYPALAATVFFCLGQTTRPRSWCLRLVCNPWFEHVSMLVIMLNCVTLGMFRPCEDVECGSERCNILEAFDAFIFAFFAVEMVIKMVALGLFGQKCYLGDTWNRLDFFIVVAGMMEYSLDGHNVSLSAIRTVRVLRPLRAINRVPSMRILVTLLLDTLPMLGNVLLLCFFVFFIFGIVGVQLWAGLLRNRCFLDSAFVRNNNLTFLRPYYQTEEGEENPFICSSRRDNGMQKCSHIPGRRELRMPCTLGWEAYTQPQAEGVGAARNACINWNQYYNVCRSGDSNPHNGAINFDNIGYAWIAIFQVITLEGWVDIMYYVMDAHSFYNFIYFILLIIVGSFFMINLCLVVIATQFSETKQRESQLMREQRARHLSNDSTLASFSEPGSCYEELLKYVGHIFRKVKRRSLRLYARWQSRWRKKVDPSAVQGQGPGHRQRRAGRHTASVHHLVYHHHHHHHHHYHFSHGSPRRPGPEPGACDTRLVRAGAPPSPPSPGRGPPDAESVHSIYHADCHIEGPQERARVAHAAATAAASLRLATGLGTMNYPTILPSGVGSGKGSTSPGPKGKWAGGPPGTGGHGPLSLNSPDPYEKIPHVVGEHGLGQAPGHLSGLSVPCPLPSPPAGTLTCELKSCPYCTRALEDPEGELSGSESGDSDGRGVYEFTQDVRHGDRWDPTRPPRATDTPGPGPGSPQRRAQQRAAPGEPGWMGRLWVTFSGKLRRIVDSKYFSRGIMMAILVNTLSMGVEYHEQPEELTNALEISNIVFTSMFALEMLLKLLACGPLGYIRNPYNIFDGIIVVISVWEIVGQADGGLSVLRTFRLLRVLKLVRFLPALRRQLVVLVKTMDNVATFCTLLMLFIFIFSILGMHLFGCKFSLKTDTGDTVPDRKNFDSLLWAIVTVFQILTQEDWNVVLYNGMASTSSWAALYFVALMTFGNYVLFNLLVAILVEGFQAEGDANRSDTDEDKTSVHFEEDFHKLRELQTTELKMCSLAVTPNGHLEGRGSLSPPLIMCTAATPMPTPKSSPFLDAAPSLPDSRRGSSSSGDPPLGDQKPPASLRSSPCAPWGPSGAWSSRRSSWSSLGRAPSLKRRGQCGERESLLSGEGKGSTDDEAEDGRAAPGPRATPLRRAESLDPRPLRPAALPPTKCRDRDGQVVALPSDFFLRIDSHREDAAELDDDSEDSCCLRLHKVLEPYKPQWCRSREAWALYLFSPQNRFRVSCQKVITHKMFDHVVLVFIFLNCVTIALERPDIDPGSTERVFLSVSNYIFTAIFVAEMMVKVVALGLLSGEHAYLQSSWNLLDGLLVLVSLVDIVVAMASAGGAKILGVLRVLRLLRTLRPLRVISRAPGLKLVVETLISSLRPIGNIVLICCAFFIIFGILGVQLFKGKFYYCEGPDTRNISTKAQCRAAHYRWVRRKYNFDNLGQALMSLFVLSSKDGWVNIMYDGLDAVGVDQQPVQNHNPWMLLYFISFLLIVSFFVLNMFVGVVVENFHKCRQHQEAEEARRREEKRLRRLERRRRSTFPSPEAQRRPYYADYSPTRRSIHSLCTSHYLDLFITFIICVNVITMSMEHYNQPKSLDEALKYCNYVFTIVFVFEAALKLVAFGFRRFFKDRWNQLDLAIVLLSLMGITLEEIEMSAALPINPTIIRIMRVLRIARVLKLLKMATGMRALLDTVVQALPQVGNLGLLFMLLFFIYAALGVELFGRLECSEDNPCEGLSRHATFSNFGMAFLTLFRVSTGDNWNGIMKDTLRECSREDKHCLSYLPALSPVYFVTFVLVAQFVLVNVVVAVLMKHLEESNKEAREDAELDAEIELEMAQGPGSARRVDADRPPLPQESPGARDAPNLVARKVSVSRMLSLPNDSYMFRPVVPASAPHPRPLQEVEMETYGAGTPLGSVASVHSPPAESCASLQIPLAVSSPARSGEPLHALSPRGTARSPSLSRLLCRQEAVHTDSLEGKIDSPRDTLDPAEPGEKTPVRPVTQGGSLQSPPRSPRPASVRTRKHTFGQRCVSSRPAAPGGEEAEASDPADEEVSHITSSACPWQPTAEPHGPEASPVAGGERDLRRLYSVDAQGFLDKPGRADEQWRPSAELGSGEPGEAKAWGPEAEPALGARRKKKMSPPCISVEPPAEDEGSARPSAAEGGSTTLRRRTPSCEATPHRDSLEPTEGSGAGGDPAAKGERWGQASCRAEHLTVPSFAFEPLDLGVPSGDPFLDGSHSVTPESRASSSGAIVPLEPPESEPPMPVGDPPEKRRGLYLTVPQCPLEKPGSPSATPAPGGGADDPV

[12] = HEK293T cytotoxicity, dose response, cytotoxicity control for miR-122 modulator project, cell-based, inhibitor set, cherry-pick, set 2 (AID 720697); assay type: functional
[13] = HEK293T cytotoxicity, dose response, cytotoxicity control for miR-122 modulator project, cell-based, activator set, cherry-pick (AID 720690); assay type: functional;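 note: HEK293T human cells scored for general mammalian cytotoxicity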
[14] = biological target: Induced myeloid leukemia cell differentiation protein Mcl-1 (Homo sapiens, UniProt Q07820); assay type: functional
Sequence of Induced myeloid leukemia cell differentiation protein Mcl-1 (Q07820 whole entry): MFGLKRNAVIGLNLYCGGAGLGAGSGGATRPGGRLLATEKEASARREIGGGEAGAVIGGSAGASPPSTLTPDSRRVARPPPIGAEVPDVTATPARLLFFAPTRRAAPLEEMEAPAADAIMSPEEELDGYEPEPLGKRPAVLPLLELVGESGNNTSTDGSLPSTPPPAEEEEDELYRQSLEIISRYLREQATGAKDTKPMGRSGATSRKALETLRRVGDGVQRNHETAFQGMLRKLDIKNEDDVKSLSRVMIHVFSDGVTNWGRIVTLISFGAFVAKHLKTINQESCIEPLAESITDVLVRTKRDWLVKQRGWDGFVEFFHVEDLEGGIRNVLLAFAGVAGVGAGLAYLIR

[15] = biological target: T6, Mannose-6-phosphate isomerase (Homo sapiens, UniProt P34949); assay: human PMI inhibitors, high substrate, primary screen, biochemical, fluorescence intensity, high mannose 6-phosphate (AID 1220)
T6 sequence (P34949 whole entry): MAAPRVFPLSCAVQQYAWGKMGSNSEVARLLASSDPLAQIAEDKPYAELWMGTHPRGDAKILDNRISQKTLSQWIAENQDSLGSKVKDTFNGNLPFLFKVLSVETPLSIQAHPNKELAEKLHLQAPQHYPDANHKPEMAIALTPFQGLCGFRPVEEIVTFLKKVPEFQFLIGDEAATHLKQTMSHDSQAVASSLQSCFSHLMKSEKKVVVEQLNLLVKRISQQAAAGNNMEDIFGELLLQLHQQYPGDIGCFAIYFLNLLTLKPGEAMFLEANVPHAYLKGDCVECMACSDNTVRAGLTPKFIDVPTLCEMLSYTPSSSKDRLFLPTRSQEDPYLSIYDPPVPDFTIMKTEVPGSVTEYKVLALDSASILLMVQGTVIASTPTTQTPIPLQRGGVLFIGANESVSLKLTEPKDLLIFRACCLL

[16] = Luminescence Cell-Based Dose Retest to Confirm Inhibitors of Cancer Stem Cells. [Related pubchem assays (depositor defined):AID2717, AID2721]; assay type: functional; details: Homo sapiens
[17] = biological target: T7, Ubiquitin-conjugating enzyme E2 N (Homo sapiens, UniProt P61088); assay type: functional;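 note: Dose-response confirmation in a TR-FRET assay detecting UBC13-driven polyubiquitin chain formation, inhibition measured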
T7 sequence (P61088 whole entry): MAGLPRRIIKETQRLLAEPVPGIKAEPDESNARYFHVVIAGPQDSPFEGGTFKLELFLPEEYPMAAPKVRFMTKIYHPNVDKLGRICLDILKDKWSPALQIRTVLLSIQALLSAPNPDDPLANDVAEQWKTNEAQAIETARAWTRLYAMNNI

Melanocortin receptor 4 = Melanocortin receptor 4 (Homo sapiens, UniProt P32245); assay type: functional, cell-based;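 note: Cell-based assay with luminescence read-out, confirmatory dose-response testing for agonist activity of biased ligands at MC4R; human U2OS cells with tagged receptor and beta-arrestin; potency of agonists that increase receptor coupling to beta-arrestin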
Sequence of Melanocortin receptor 4 (P32245 whole entry): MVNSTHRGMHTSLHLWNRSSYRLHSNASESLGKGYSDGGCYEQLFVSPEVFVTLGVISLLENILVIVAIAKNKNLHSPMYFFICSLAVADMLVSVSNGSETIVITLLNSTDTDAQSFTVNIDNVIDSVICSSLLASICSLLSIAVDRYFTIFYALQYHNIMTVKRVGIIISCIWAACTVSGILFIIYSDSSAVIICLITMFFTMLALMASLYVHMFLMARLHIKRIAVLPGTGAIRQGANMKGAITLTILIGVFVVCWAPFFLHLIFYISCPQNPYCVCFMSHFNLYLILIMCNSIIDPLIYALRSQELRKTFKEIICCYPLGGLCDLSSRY

[18] = miR-122 activators in hepatoma reporter cells, dose response, cell-based, Huh7 psiCHECK-miR122, Renilla luciferase, cherry-picked (AID 651956); assay type: functional;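 note: huh7 hepatoma cells stably carrying a psiCHECK-2 miR-122 sensor plasmid; renilla luciferase signal reporting endogenous miR-122 activity after 48 h compound exposure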
[19] = biological target: T8, DNA repair protein RAD52 homolog (Homo sapiens, UniProt P43351); assay type: functional, biochemical
T8 sequence (P43351 whole entry): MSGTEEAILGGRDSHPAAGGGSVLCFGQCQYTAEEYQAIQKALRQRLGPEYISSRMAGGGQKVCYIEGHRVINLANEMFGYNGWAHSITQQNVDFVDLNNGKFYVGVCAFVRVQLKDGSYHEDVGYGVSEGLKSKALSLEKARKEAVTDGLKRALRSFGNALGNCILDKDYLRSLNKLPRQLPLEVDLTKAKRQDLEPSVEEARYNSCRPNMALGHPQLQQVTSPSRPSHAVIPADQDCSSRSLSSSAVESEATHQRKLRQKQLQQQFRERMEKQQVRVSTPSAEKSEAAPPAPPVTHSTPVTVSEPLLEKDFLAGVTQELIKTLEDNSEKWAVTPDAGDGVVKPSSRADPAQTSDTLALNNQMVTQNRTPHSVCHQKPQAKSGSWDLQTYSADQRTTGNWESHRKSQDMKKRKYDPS

Genome polyprotein = Genome polyprotein (dengue virus type 2, UniProt P29990); assay: Dengue-2 NS5 methyltransferase inhibitors, primary screen, biochemical, confirmation dose response (AID 588689); assay type: functional
Sequence of Genome polyprotein (P29990 2492-3391 limits assumed): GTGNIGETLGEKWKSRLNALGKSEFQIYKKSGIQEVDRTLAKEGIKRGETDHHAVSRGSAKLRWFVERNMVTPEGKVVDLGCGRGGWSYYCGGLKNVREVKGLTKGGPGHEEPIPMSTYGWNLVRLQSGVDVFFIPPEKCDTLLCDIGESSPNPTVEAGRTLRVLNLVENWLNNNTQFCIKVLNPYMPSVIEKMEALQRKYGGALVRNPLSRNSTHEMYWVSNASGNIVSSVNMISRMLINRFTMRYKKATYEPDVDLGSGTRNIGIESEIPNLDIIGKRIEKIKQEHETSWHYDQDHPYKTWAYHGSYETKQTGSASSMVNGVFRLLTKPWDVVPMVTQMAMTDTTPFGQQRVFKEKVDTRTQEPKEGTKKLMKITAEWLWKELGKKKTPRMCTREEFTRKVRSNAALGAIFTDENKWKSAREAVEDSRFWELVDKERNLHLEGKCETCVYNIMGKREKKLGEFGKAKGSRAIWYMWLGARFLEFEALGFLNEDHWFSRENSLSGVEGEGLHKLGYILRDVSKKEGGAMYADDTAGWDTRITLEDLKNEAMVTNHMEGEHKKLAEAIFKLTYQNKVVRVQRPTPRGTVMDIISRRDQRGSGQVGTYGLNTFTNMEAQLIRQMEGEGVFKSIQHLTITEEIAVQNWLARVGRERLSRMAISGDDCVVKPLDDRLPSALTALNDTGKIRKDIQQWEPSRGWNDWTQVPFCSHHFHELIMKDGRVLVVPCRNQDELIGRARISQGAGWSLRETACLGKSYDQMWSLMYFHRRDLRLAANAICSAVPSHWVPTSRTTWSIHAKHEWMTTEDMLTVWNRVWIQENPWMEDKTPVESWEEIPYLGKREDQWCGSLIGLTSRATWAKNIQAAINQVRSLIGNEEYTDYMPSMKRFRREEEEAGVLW

SMILES: COc1ccc(-c2csc(NC(C)c3nc4cc(Cl)c(Cl)cc4n3CCCO)n2)cc1 (stereo not given)
- CC50 [1]: 15.4 µM (active)

SMILES: CC(C)(C)OC(=O)N1CCC(NC(=O)c2[nH]cnc2C(=O)Nc2ccccc2)CC1
- CC50 [1]: > 40 µM (active)

SMILES: CC(=O)Nc1ccc(N2C(=O)CC(Sc3nc4ccccc4s3)C2=O)cc1 (stereo not given)
- IC50 [2]: > 67.5 µM (inactive)
- EC50 [3]: > 67.5 µM (inactive)

SMILES: CCN1C(=O)c2ccccc2[S+]([O-])c2ccc(C(=O)N3CCCCCC3)cc21 (stereo not given)
- IC50 [4]: > 100 µM (inactive)
- IC50 [5]: > 100 µM (not active)

SMILES: COc1ccc(-n2c(SCC(=O)Nc3cc(C)on3)nc3c(c2=O)SCC3)cc1
- IC50 [4]: > 100 µM (inactive)
- IC50 [5]: > 100 µM (not active)
- AC50 (HEK293): 98.6 µM (active)

SMILES: CCN(Cc1ccccc1)Cc1nnnn1Cc1ccccc1
- CC50 [6]: > 40 µM (active)

SMILES: COc1cc(/C=C2/C(=O)N(c3ccc([N+](=O)[O-])cc3)N=C2N2CCOCC2)ccc1O
- AC50 [7]: 19.7 µM (active)
- EC50 (Protein RecA): 6.68 µM (active)
- IC50 [8]: > 128 µM (inactive)

SMILES: c1ccc(-c2ncc3c(ccc4ccccc43)n2)cc1
- IC50 [2]: > 67.6 µM (inactive)
- EC50 [3]: > 67.6 µM (inactive)

SMILES: O=C(NCc1cccs1)C1CC(c2ccccc2O)=NO1 (stereo not given)
- IC50 [4]: > 100 µM (inactive)
- IC50 [5]: > 100 µM (not active)

SMILES: CCC1C/C(=C/c2ccco2)C(=O)/C(=C/c2ccco2)C1 (stereo not given)
- CC50 [6]: > 40 µM (active)

SMILES: Cc1ccc(OCC(O)Cn2c(=N)n(Cc3ccccc3)c3ccccc32)cc1 (stereo not given)
- EC50 [9]: 4.53 µM (active)
- EC50 [10]: 4.31 µM (active)
- EC50 [11]: 4.11 µM (active)
- AC50 [12]: 7.65 µM (active)
- AC50 [13]: 14.4 µM (active)

SMILES: Cc1c(C(=O)N/N=C/c2ccc(-c3ccccc3[N+](=O)[O-])o2)sc(N)c1C#N
- IC50 [14]: 3.78 µM (active)
- IC50 [15]: > 50 µM (not active)

SMILES: CCCCCCOc1ccc(/C(C)=N/NC2=NCCN2)cc1
- AC50 [16]: 3.05 µM (active)
- IC50 [17]: > 20 µM (inactive)
- EC50 (Melanocortin receptor 4): > 89.1 µM (inactive)
- AC50 [18]: 22.2 µM (active)
- AC50 [19]: 23 µM (active)
- AC50 [12]: 16 µM (active)
- AC50 [13]: 16.3 µM (active)

SMILES: COc1ccccc1-c1ccc2c(c1)O[C@@H](CN(C)S(=O)(=O)c1ccc(F)cc1)[C@@H](C)CN([C@@H](C)CO)S2(=O)=O
- AC50 [13]: 42.4 µM (active)

SMILES: Oc1ccc2ccccc2c1/C=N\C12CN3CCN(CN(C3)C1)C2
- IC50 [15]: 27.6 µM (active)
- IC50 (Genome polyprotein): 53.9 µM (active)
